Data: PubChem BioAssay AID2060613 (Molecular Pharmacology Branch, DTP, NCI, 2025)

Tested on: 233499-124-R-J3-PDC complex spheroid viability
Assay: Anticancer human tumor 233499-124-R-J3-PDC patient-derived colon adenocarcinoma cell line growth inhibition [CLK]
Conditions: for IC50: curve of first compound; for viability, T/C: stronger effect = lower value
Method in brief: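 Patient-derived tumor cells grown as complex spheroids with HUVEC endothelial cells and mesenchymal stem cells, treated with drug combinations. Concentrations descend in half-log steps from near clinical Cmax, or from 10 microM if Cmax unknown.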
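Also: spheroids exposed to the drug combinations for seven days.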
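For viability, T/C in this document: percent viability relative to DMSO vehicle control wells taken as 100%.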

Which results are given for C=CC(=O)Nc1cc(Nc2nccc(-c3cn(C)c4ccccc34)n2)c(OC)cc1N(C)CCN(C)C + CNC(=O)c1ccc(Nc2nc(OC3CCCC3)c3c(-c4ccc5nc(C)oc5c4)c[nH]c3n2)c(OC)c1?
IC50 (second compound 0.0316 µM): > 0.3 µM; IC50 (second compound 0.1 µM): > 0.3 µM; IC50 (second compound 0.316 µM): > 0.3 µM; IC50 (second compound 1 µM): > 0.3 µM; IC50 (second compound 3.16 µM): > 0.3 µM; IC50 (second compound 10 µM): > 0.3 µM; viability, T/C (second compound 0.0316 µM, first compound 0.000949 µM): 70.1%; viability, T/C (second compound 0.0316 µM, first compound 0.003 µM): 97%; viability, T/C (second compound 0.0316 µM, first compound 0.00949 µM): 76.7%; viability, T/C (second compound 0.0316 µM, first compound 0.03 µM): 91%; viability, T/C (second compound 0.0316 µM, first compound 0.0949 µM): 94.9%; viability, T/C (second compound 0.0316 µM, first compound 0.3 µM): 71.8%; viability, T/C (second compound 0.1 µM, first compound 0.000949 µM): 69.8%; viability, T/C (second compound 0.1 µM, first compound 0.003 µM): 80.8%; viability, T/C (second compound 0.1 µM, first compound 0.00949 µM): 77.9%; viability, T/C (second compound 0.1 µM, first compound 0.03 µM): 74.8%; viability, T/C (second compound 0.1 µM, first compound 0.0949 µM): 81.5%; viability, T/C (second compound 0.1 µM, first compound 0.3 µM): 77.1%; viability, T/C (second compound 0.316 µM, first compound 0.000949 µM): 70%; viability, T/C (second compound 0.316 µM, first compound 0.003 µM): 86%; viability, T/C (second compound 0.316 µM, first compound 0.00949 µM): 69.2%; viability, T/C (second compound 0.316 µM, first compound 0.03 µM): 68.4%; viability, T/C (second compound 0.316 µM, first compound 0.0949 µM): 76.6%; viability, T/C (second compound 0.316 µM, first compound 0.3 µM): 78.3%; viability, T/C (second compound 1 µM, first compound 0.000949 µM): 78.7%; viability, T/C (second compound 1 µM, first compound 0.003 µM): 76.2%; viability, T/C (second compound 1 µM, first compound 0.00949 µM): 75.3%; viability, T/C (second compound 1 µM, first compound 0.03 µM): 82.5%; viability, T/C (second compound 1 µM, first compound 0.0949 µM): 69.9%; viability, T/C (second compound 1 µM, first compound 0.3 µM): 73.3%; viability, T/C (second compound 3.16 µM, first compound 0.000949 µM): 55.5%; viability, T/C (second compound 3.16 µM, first compound 0.003 µM): 71.3%; viability, T/C (second compound 3.16 µM, first compound 0.00949 µM): 81.4%; viability, T/C (second compound 3.16 µM, first compound 0.03 µM): 65.8%; viability, T/C (second compound 3.16 µM, first compound 0.0949 µM): 79.7%; viability, T/C (second compound 3.16 µM, first compound 0.3 µM): 67.7%; viability, T/C (second compound 10 µM, first compound 0.000949 µM): 73.5%; viability, T/C (second compound 10 µM, first compound 0.003 µM): 62.2%; viability, T/C (second compound 10 µM, first compound 0.00949 µM): 76.9%; viability, T/C (second compound 10 µM, first compound 0.03 µM): 74.8%; viability, T/C (second compound 10 µM, first compound 0.0949 µM): 69.6%; viability, T/C (second compound 10 µM, first compound 0.3 µM): 61.7%

With Cn1ncnc1[C@H]1c2n[nH]c(=O)c3cc(F)cc(c23)N[C@@H]1c1ccc(F)cc1 + CNC(=O)c1ccc(Nc2nc(OC3CCCC3)c3c(-c4ccc5nc(C)oc5c4)c[nH]c3n2)c(OC)c1 as the molecule, how does the IC50 (second compound 0.0316 µM) read?
The IC50 was over 0.1 µM.

And the IC50 (second compound 0.1 µM)?
The IC50 was over 0.1 µM.

And the IC50 (second compound 0.316 µM)?
Its IC50 is over 0.1 µM.

What about the IC50 (second compound 1 µM) of the same molecule?
The IC50 was over 0.1 µM.

What about the IC50 (second compound 3.16 µM) of the same molecule?
Its IC50 is over 0.1 µM.

What about the IC50 (second compound 10 µM) of the same molecule?
The IC50 was over 0.1 µM.

And the viability, T/C (second compound 0.0316 µM, first compound 0.000316 µM)?
Its viability, T/C is 91.3%.

And the viability, T/C (second compound 0.0316 µM, first compound 0.001 µM)?
Its viability, T/C is 96.5%.

And the viability, T/C (second compound 0.0316 µM, first compound 0.00316 µM)?
Its viability, T/C is 91%.

What about the viability, T/C (second compound 0.0316 µM, first compound 0.01 µM) of the same molecule?
Its viability, T/C is 95.9%.

And the viability, T/C (second compound 0.0316 µM, first compound 0.0316 µM)?
Its viability, T/C is 110%.

What about the viability, T/C (second compound 0.0316 µM, first compound 0.1 µM) of the same molecule?
Its viability, T/C is 103%.

What about the viability, T/C (second compound 0.1 µM, first compound 0.000316 µM) of the same molecule?
The viability, T/C was 77.5%.

What about the viability, T/C (second compound 0.1 µM, first compound 0.001 µM) of the same molecule?
The viability, T/C was 71.4%.

What about the viability, T/C (second compound 0.1 µM, first compound 0.00316 µM) of the same molecule?
The viability, T/C was 77.2%.

And the viability, T/C (second compound 0.1 µM, first compound 0.01 µM)?
Its viability, T/C is 71.8%.

And the viability, T/C (second compound 0.1 µM, first compound 0.0316 µM)?
The viability, T/C was 78.8%.

What about the viability, T/C (second compound 0.1 µM, first compound 0.1 µM) of the same molecule?
The viability, T/C was 60.8%.

And the viability, T/C (second compound 0.316 µM, first compound 0.000316 µM)?
Its viability, T/C is 80.5%.

And the viability, T/C (second compound 0.316 µM, first compound 0.001 µM)?
Its viability, T/C is 75.5%.

And the viability, T/C (second compound 0.316 µM, first compound 0.00316 µM)?
The viability, T/C was 58.6%.

What about the viability, T/C (second compound 0.316 µM, first compound 0.01 µM) of the same molecule?
The viability, T/C was 57.7%.

What about the viability, T/C (second compound 0.316 µM, first compound 0.0316 µM) of the same molecule?
Its viability, T/C is 66%.

What about the viability, T/C (second compound 0.316 µM, first compound 0.1 µM) of the same molecule?
Its viability, T/C is 64.5%.

And the viability, T/C (second compound 1 µM, first compound 0.000316 µM)?
The viability, T/C was 76.5%.

And the viability, T/C (second compound 1 µM, first compound 0.001 µM)?
Its viability, T/C is 87.3%.

What about the viability, T/C (second compound 1 µM, first compound 0.00316 µM) of the same molecule?
Its viability, T/C is 79.8%.

And the viability, T/C (second compound 1 µM, first compound 0.01 µM)?
The viability, T/C was 74.1%.

What about the viability, T/C (second compound 1 µM, first compound 0.0316 µM) of the same molecule?
The viability, T/C was 56.8%.

And the viability, T/C (second compound 1 µM, first compound 0.1 µM)?
Its viability, T/C is 59.7%.

What about the viability, T/C (second compound 3.16 µM, first compound 0.000316 µM) of the same molecule?
The viability, T/C was 67.3%.

What about the viability, T/C (second compound 3.16 µM, first compound 0.001 µM) of the same molecule?
Its viability, T/C is 69%.

And the viability, T/C (second compound 3.16 µM, first compound 0.00316 µM)?
The viability, T/C was 69.3%.

What about the viability, T/C (second compound 3.16 µM, first compound 0.01 µM) of the same molecule?
Its viability, T/C is 67.8%.

What about the viability, T/C (second compound 3.16 µM, first compound 0.0316 µM) of the same molecule?
The viability, T/C was 72.8%.

What about the viability, T/C (second compound 3.16 µM, first compound 0.1 µM) of the same molecule?
Its viability, T/C is 64.8%.

And the viability, T/C (second compound 10 µM, first compound 0.000316 µM)?
Its viability, T/C is 67.1%.

What about the viability, T/C (second compound 10 µM, first compound 0.001 µM) of the same molecule?
Its viability, T/C is 56.3%.

And the viability, T/C (second compound 10 µM, first compound 0.00316 µM)?
The viability, T/C was 74.3%.

And the viability, T/C (second compound 10 µM, first compound 0.01 µM)?
Its viability, T/C is 73.9%.

What about the viability, T/C (second compound 10 µM, first compound 0.0316 µM) of the same molecule?
Its viability, T/C is 50.5%.

And the viability, T/C (second compound 10 µM, first compound 0.1 µM)?
The viability, T/C was 58.1%.
